According to paper PMC10344917, “Affinity and cooperativity modulate ternary complex formation to drive targeted protein degradation” (Nature Communications, 2023):
Like-named read-outs stand apart in the source and are kept apart here. Each block holds one compound with its values, some of them ahead of it.

Columns and labels:
BRD4 [1] = biological target: T1, BRD4 (Homo sapiens, UniProt O60885); assay: BRD4 degradation, MSD assay, dose response; type: cell-based; parameters: AUC (area under the dose-response curve): unit not given beside the values; conditions: A375 cells
T1 construct: endogenous in cells; host or cells: A375
Protocol: (§1) A375 cells were treated with SMARCA2 or BRD4 degraders for 2 h (4 h for BRD4) and generated lysates. SMARCA2 or BRD4 protein was measured with a variation of a sandwich ELISA that was assembled from commercially available antibodies as well as reagents and instrumentation procured from Meso Scale Discovery (MSD). Degradation parameter, DC50, is not suitable for PROTACs that induce partial/incomplete DR curves at a fixed time point; maximum drop in target protein level (Dmax) >>0. Conversely, the area under the curve (AUC) can be calculated as a degradation activity parameter for any DR curve, and it encompasses both the degradation potency (i.e., DC50) and efficacy (i.e., Dmax) of PROTACs.
(§2) A 1:3 compound dose-response titration was diluted in growth media (1:20), added to appropriate wells of a cell culture plate (1:10) and then assay plates were incubated at 37 °C, 5% CO2.
(§3) Plates were washed with 300 µL per well MSD wash buffer (MSD R61TX-1) between each step. Following the last incubation, plates were washed with MSD wash buffer then 150 µL of MSD read buffer (MSD R92TC-2) was added to each well. Plates were immediately read on a MSD plate reader (MSD Sector Imager 6000).
(§4) MSD electrochemiluminescence signals were subtracted by the average background signal from wells with lysis buffer alone. Normalized MSD values (POC) for individual compound treated wells were acquired by dividing background-subtracted assay signal by signal from vehicle control wells (cells + 0.1% DMSO) and multiplying by 100. This POC data was graphed using a nonlinear regression curve fit xy analysis and a log(inhibitor) vs response —variable slope (four parameter) model for dose response curves (Graphpad Prism 9, San Diego, CA, USA). To calculate area under the curve, all points on the curve were connected and vertical lines were drawn from each point down to y = 0, generating a series of trapezoids. The area of each trapezoid was determined using the equation A = (1/2)(h)(b1 + b2), where h = 1 (distance between points), b1 = POC of the first point and b2 = POC of the second point. The sum of all trapezoids provides an approximate area under the curve (AUC). For half-life (t1/2) determination in time course studies, a one-phase decay model was used for curve fitting and the time at which the curve crossed 50 POC was determined through interpolation (Graphpad Prism 9, San Diego, CA, USA).

VHL/EloB/EloC (VBC) = biological target: T2, VHL/EloB/EloC (VBC) (Homo sapiens, UniProt P40337); assay: SPR binary binding of PROTAC to VBC-functionalized surface; conditions: SPR; error SEM, N = 3; read-out: KLP (binary binding affinity between E3 ligase VHL and PROTAC)
T2 construct: VHL (54-213), ElonginB (17-112) ElonginC (1-104); made in house
Protocol: (§5) SPR experiments were performed on a Biacore 8 K or T200 instrument (Cytiva). […] The running buffer during immobilization was PBS with 0.005% P20. Either high-density (3000-4000 RU) or low-density (300-400 RU) VBC-functionalized surfaces were created, followed by equilibration in the running buffer for 3 h.
PROTACs (10 mM stocks in 100% DMSO) were diluted to 400 nM in a running buffer (20 mM Tris pH 7.5, 200 mM NaCl, 0.02% P20). This stock solution was then serially diluted in the running buffer containing final 2% DMSO. […] For SMARCA2 analysis, biotinylated proteins were introduced on a Series S streptavidin (SA) sensor chip at high-density (3000-4000 RU).
(§6) Raw sensorgrams were processed by performing double reference subtraction, solvent correction, and analysis was done using Biacore Insight Evaluation Software. Kinetic analysis was performed by fitting data to a 1:1 Langmuir interaction model and a steady-state affinity model was used to evaluate equilibrium binding affinity.

[2] = biological target: T3, VBC / BRD4^BD1 ternary complex (Homo sapiens, UniProt O60885+P40337); assay: SPR ternary complex binding, VBC surface with preformed PROTAC/BRD4 BD1 complex
T3 construct: VHL (54-213), ElonginB (17-112) ElonginC (1-104); BRD4 (44-168); His6 (N, cleaved yes); made in house
Protocol: as §5
(§7) PROTACs (10 mM in 100% DMSO) were initially prepared at 200 nM in a running buffer (20 mM Tris pH 8.0, 250 mM NaCl, 1 mM TCEP, 0.01% P20, 0.2 mg/ml BSA) with a concentration of 2% DMSO. This solution was mixed at 1:1 ratio with a solution of 5 μM of the SMARCA2 or BRD4 bromodomain protein in the running buffer. […] For ternary experiments, solutions were injected sequentially in single-cycle kinetic format without regeneration (contact time 60 s, flow rate 80 μL/min, dissociation time 300 s) using a stabilization period of 60 s and syringe wash (50% DMSO) between injections onto a low-density VBC-functionalized surface.
as §6

[3] = biological target: T4, VBC / BRD4^BD2 ternary complex (Homo sapiens, UniProt O60885+P40337); assay: SPR ternary complex binding, VBC surface with preformed PROTAC/BRD4 BD2 complex
T4 construct: VHL (54-213), ElonginB (17-112) ElonginC (1-104); ternary complex formation with both bromodomains, BRD4^BD1 and BRD4^BD2, independently; His6 (N); made in house
Protocol: as §5, §7, §6

BRD4^BD2 = biological target: T5, BRD4^BD2 (Homo sapiens, UniProt O60885); assay: SPR binary binding of PROTAC to BRD4^BD2-functionalized surface; conditions: 1:1 Langmuir binding model, SD N=2
T5 construct: ternary complex formation with both bromodomains, BRD4^BD1 and BRD4^BD2, independently; made in house

BRD4 [4] = biological target: T1, BRD4; assay: BRD4 degradation time course in A375 cells (MSD); type: cell-based; conditions: single concentration at or near maximal activity
Text: (§8) To measure the rate of protein degradation, we treated A375 cells with a single concentration of each PROTAC and measured the decrease in target abundance over time as shown in Figs. 4b and5b.
as §4

BRD4-NanoLuc = biological target: T6, BRD4-NanoLuc (Homo sapiens, UniProt O60885); assay: NanoBRET target engagement assay, live and permeabilized HEK293 cells (BRD4); type: cell-based; conditions: for IC50: BRD4 NanoBRET TE
T6 construct: expressed in transfected cells; host or cells: HEK293
Protocol: We employed a NanoBRET-based target engagement (TE) assay as reported earlier^7 for evaluating PROTACs relative permeability. In summary, live and permeabilized HEK293 cells with SMARCA2 or BRD4-NanoLuc were used for measuring IC50 values of different PROTACs. The relative shift in the IC50 was evaluated as relative binding affinity (RBA) by taking the ratio of IC50 values of live and permeabilized cells. Availability index (AI), which is a surrogate for permeability can be calculated by taking a ratio of RBA of compounds to permeable benchmark molecules.
Relative Binding Affinity (RBA) = Live-cell TE IC50 / Permeabilized-cell TE IC50
Availability Index (AI) = RBAtest cmpd / RBApermeable benchmark
Availability Index (AI) greater than one is indicative of reduced permeability compared to the benchmark.

SMARCA2 [5] = biological target: T7, SMARCA2 (Homo sapiens, UniProt P51531); assay: SMARCA2 degradation, MSD assay, dose response; type: cell-based; parameters: key to AUC (area under the dose-response curve): sum of trapezoids of POC vs dose points, h = 1
T7 construct: endogenous in cells; host or cells: A375
Protocol: as §1, §2, §3, §4

[6] = biological target: T8, VBC / SMARCA2^BD ternary complex (Homo sapiens, UniProt P40337+P51531); assay: SPR ternary complex binding, VBC surface with preformed PROTAC/SMARCA2 bromodomain complex
T8 construct: VHL (54-213), ElonginB (17-112) ElonginC (1-104); SMARCA2^BD 1373–1511 ∆1400–1417; His6 (N, cleaved yes); made in house
Protocol: as §5
PROTACs (10 mM in 100% DMSO) were initially prepared at 200 nM in a running buffer (20 mM Tris pH 8.0, 250 mM NaCl, 1 mM TCEP, 0.01% P20, 0.2 mg/ml BSA) with a concentration of 2% DMSO. This solution was mixed at 1:1 ratio with a solution of 5 μM of the SMARCA2 or BRD4 bromodomain protein in the running buffer. This complex was then serially diluted in the running buffer containing 2.5 μM SMARCA2 or BRD4 and 2% DMSO (5-point five-fold serial dilution). For ternary experiments, solutions were injected sequentially in single-cycle kinetic format without regeneration (contact time 60 s, flow rate 80 μL/min, dissociation time 300 s) using a stabilization period of 60 s and syringe wash (50% DMSO) between injections onto a low-density VBC-functionalized surface.
as §6

SMARCA2^BD = biological target: T9, SMARCA2^BD (Homo sapiens, UniProt P51531); assay: SPR binary binding of PROTAC to SMARCA2-functionalized surface; conditions: 1:1 Langmuir binding model, SEM N=3 or SD N=2, read-out: KTP (binary affinity PROTAC / SMARCA2)
T9 construct: SMARCA2^BD 1373–1511 ∆1400–1417; made in house
Protocol: PROTACs (10 mM stocks in 100% DMSO) were diluted to 400 nM in a running buffer (20 mM Tris pH 7.5, 200 mM NaCl, 0.02% P20). This stock solution was then serially diluted in the running buffer containing final 2% DMSO. Solutions were injected in multi-cycle kinetic format without regeneration (contact time 60 s, flow rate 80 μL/min, dissociation time 120 s) using a stabilization period of 30 s and syringe wash (50% DMSO) between injections onto a high-density VBC-functionalized surface. For SMARCA2 analysis, biotinylated proteins were introduced on a Series S streptavidin (SA) sensor chip at high-density (3000-4000 RU).
as §6

SMARCA2 [7] = biological target: T7, SMARCA2; assay: SMARCA2 degradation time course in A375 cells (MSD); type: cell-based; conditions: single concentration at or near maximal activity
Text: as §8, with “This characteristic has been described as cooperativity (α > 1) and likely results from favorable PPIs present in the ternary complex. […] To” for “To”
MSD electrochemiluminescence signals were subtracted by the average background signal from wells with lysis buffer alone. Normalized MSD values (POC) for individual compound treated wells were acquired by dividing background-subtracted assay signal by signal from vehicle control wells (cells + 0.1% DMSO) and multiplying by 100. This POC data was graphed using a nonlinear regression curve fit xy analysis and a log(inhibitor) vs response —variable slope (four parameter) model for dose response curves (Graphpad Prism 9, San Diego, CA, USA). To calculate area under the curve, all points on the curve were connected and vertical lines were drawn from each point down to y = 0, generating a series of trapezoids. The area of each trapezoid was determined using the equation A = (1/2)(h)(b1 + b2), where h = 1 (distance between points), b1 = POC of the first point and b2 = POC of the second point. The sum of all trapezoids provides an approximate area under the curve (AUC). For half-life (t1/2) determination in time course studies, a one-phase decay model was used for curve fitting and the time at which the curve crossed 50 POC was determined through interpolation (Graphpad Prism 9, San Diego, CA, USA). Additionally initial rate of degradation was determined by multiplying 100 with rate constant (τ = 0.693/t1/2).

[8] = SPR, VHL, PROTAC, error SEM, N = 3, read-out: KLPT (ternary complex binding affinity)

T7 sequence (P51531 whole entry): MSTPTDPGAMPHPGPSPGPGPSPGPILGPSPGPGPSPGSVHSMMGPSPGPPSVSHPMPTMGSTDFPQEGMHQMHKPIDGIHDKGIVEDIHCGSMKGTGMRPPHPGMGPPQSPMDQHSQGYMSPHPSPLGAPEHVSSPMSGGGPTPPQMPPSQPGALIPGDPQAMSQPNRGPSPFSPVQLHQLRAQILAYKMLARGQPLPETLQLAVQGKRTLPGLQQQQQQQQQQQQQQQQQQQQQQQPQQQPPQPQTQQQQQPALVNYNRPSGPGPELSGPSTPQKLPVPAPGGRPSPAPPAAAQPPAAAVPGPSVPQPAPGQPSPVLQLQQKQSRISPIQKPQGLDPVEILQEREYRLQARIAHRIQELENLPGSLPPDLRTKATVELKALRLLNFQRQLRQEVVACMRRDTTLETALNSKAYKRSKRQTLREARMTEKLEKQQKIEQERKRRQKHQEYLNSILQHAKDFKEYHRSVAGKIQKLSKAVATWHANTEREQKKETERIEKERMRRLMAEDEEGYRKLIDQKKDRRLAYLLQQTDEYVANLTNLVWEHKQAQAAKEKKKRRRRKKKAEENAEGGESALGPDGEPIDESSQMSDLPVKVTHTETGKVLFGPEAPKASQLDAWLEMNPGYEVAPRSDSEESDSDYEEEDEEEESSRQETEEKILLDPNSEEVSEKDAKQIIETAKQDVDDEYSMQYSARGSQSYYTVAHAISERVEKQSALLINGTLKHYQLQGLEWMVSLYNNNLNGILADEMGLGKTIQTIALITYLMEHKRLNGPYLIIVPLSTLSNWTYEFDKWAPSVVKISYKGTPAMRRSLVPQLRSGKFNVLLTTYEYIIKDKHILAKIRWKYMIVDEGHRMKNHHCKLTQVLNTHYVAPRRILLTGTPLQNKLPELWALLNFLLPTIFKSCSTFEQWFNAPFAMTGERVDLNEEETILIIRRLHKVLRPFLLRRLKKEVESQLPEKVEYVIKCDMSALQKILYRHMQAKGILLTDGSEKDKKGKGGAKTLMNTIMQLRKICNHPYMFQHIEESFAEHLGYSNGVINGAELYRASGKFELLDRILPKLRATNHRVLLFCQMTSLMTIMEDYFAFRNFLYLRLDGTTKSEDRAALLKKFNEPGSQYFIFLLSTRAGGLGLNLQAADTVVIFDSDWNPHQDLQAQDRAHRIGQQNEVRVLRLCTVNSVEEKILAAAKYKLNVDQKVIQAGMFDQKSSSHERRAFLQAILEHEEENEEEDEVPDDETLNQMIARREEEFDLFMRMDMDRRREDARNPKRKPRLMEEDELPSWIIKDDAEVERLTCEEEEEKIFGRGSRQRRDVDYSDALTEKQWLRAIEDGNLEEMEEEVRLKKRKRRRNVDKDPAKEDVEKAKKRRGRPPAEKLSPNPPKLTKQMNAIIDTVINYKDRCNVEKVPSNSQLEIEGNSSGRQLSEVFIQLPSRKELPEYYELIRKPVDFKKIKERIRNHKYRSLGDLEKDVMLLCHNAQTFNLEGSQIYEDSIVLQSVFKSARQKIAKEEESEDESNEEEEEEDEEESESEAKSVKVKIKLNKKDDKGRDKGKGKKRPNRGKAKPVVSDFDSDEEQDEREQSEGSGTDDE
T9 sequence (P51531 1373-1493 isoform P51531-2): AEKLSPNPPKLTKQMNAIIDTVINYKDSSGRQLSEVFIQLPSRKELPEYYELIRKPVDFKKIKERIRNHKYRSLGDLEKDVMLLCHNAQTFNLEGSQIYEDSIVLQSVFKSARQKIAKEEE

Dmax (BRD4 [1]; A-375, BRD4 degraded, MSD assay, 4 h timepoint): 91%
AUC (area under the dose-response curve) (BRD4 [1]; BRD4 MSD assay, 4 h): 192
DC50 (BRD4 [1]; BRD4 degradation, MSD assay, 4 h timepoint): 518 nM
Kd (VHL/EloB/EloC (VBC)): 22 ± 2 nM
α (cooperativity, KLP/KLPT) [2]: 0.7
Kd [2, 8]: 31 ± 4 nM
α (cooperativity, KLP/KLPT) [3]: 3.7
Kd [3, 8]: 6 ± 1 nM
Kd (BRD4^BD2): 20.5 ± 1.2 nM
Initial Degradation Rate (BRD4 [4]): 1.38 %/min
Availability Index (BRD4-NanoLuc; RBA test cmpd / RBA of JQ1 benchmark, surrogate for permeability): 264.47
IC50 (BRD4-NanoLuc; live HEK293 cells, read-out: Live-Cell TE): 21600 nM
IC50 (BRD4-NanoLuc; permeabilized HEK293 cells, read-out: Permeabilized-Cell TE): 80 nM
Structure (SMILES): Cc1ncsc1-c1ccc(CNC(=O)[C@@H]2C[C@@H](O)CN2C(=O)[C@@H](NC(=O)COCc2cn(CCNC(=O)C[C@@H]3N=C(c4ccc(Cl)cc4)c4c(sc(C)c4C)-n4c(C)nnc43)nn2)C(C)(C)C)cc1 [Compound 12, (2S,4R)-1-((S)-2-(2-((1-(2-(2-((S)-4-(4-chlorophenyl)-2,3,9-trimethyl-6H-thieno[3,2-f][1,2,4]triazolo[4,3-a][1,4]diazepin-6-yl)acetamido)ethyl)-1H-1,2,3-triazol-4-yl)methoxy)acetamido)-3,3-dimethylbutanoyl)-4-hydroxy-N-(4-(4-methylthiazol-5-yl)benzyl)pyrrolidine-2-carboxamide]

SMARCA2 degradation (SMARCA2 [5]; 2 h MSD assay): ~ 30%
Dmax (SMARCA2 [5]; A-375, SMARCA2 degraded, MSD assay, A375 cells, 2 h timepoint): 74%
AUC (area under the dose-response curve) (SMARCA2 [5]; SMARCA2 MSD assay, A375 cells, 2 h): 85
DC50 (SMARCA2 [5]; SMARCA2 degradation, MSD assay, A375 cells, 2 h timepoint): 372 nM
Kd (VHL/EloB/EloC (VBC)): 25 ± 4 nM
α (cooperativity, KLP/KLPT) [6]: 0.32
Kd [6, 8]: 77 ± 8 nM
Kd (SMARCA2^BD): 294 ± 33 nM
Initial Degradation Rate (SMARCA2 [7]): 0.98 %/min
Structure (SMILES): Cc1ncsc1-c1ccc([C@H](C)NC(=O)[C@@H]2C[C@@H](O)CN2C(=O)[C@@H](NC(=O)c2cccc(N3CCN(c4nc(-c5ccccc5O)nnc4N)CC3)n2)C(C)(C)C)cc1 [Compound 9, 6-(4-(6-Amino-3-(2-hydroxyphenyl)-1,2,4-triazin-5-yl)piperazin-1-yl)-N-((S)-1-((2S,4R)-4-hydroxy-2-(((S)-1-(4-(4-methylthiazol-5-yl)phenyl)ethyl)carbamoyl)pyrrolidin-1-yl)-3,3-dimethyl-1-oxobutan-2-yl)picolinamide]
